According to patent US20020006915A1, “Use of COX-2 inhibitors to treat sepsis, complications thereof, and EP receptor modulation” (priority 2000, published 2002):

Columns and labels:
[1] = system: LPS stimulated splenic macrophages; assay: Mediator production (PGE2, LTB4, TNF-α, NO, IL-6) by LPS stimulated splenic macrophages 7 days after trauma, NS-398 twice a day over 7 days; assay type: in vivo, BALB/c mice; conditions: for NO: mean ± SEM
Description: Animals, Experimental Protocol, NS-398 preparation were as described in Example I. Macrophages were prepared as described initially under “Macrophage Preparation ” in Example I. After lysis of erythrocytes with ammonium chloride solution and centrifugation as described in Example I, macrophages were further prepared by resuspending the pellet in RPMI-1640 (Gibco BRL, Life Technologies Inc) containing 2 mmol/L L-glutamine, 100 U/mL penicillin, 100 μg/mL streptomycin, 0.25 μg/mL amphotericin B, and 10% heat-inactivated fetal calf serum (Gibco BRL, Life Technologies Inc), counted via hemocytometer and diluted to a final concentration of 5×10^6 cells/mL, and plated in 96 well plates in a volume of 0.2 mL per well. After allowing macrophages to adhere for 2 hours, the remaining cells were suctioned off and the macrophages were cultured in the +/−1 ng LPS 055:B5 (Sigma, St. Louis, Mo.) per mL at 37° C. in 5% carbon dioxide incubators. Supernatants were harvested at 24 hours and stored at −70° C. until analysis for batch enzyme-linked immunosorbent assay processing to determine prostaglandin and cytokine production.
NO was measured indirectly by NO2^− concentration using the Greiss reagent system (Promega, Madison, Wis). Protein was quantified using the BCA protein reagent (Pierce, Rockford, Ill.) and all measurements were normalized to protein content per well.
BALB/C mice (n=8/group) were given 10mg/kg NS398 intraperitoneally BID for 7 days, starting immediately after sham injury or trauma (femur fracture+40% hemorrhage). Four groups, sham+placebo (C); sham+NS398 (CN); trauma+placebo (T); or trauma+NS398 (TN) were studied. On day 7 after trauma, mice were sacrificed and splenic macrophages evaluated for PGE2, TNF-α and NO production (via Student's t-test). In a separate study, mice (n=10-11/group) were traumatized and given NS398 for 7 days. On day 7, cecal ligation and puncture was performed, and mice evaluated for survival over 3 weeks (via Log-rank test).

IκB-α = assay: Western blot of cytosolic IκB-α in splenic macrophages; assay type: in vivo, BALB/c mice; conditions: NS-398 treatment after trauma, over 7 days
Description: Cytoplasmic fractions were collected after splenic macrophages were stimulated (as described above) and then boiled in equal volumes of loading buffer (125 mM Tris-HCl, pH 6.8, 4% sodium dodecyl sulfate, 20% glycerol and 10% 2-mercaptoethanol) for 3 minutes and were then separated by electrophoresis on a tris-glycine gradient gel. The proteins were then transferred to nitrocellulose membranes (Xcell II Blot Module; Novex). The membranes were blocked with 10% non-fat dried milk in Tris-buffered saline (TBS), pH 7.6, containing 0.05% tween-20 (TTBS) for 1 hour and then incubated with a polyclonal rabbit anti-mouse antibody to IκB-α (Santa Cruz Laboratories) for 45 minutes. After washing twice in TTMS, the blots were incubated with a peroxidase-conjugated goat anti-rabbit IgG secondary antibody for 15 minutes. The blots were washed in TTBS for 5 minutes three times, then in TBS for 5 minutes, incubated in enhanced chemiluminescence reagents (ECL, Amersham Life Sciences, Buckingham, England) and exposed on radiographic film (Kodak, Rochester, N.Y.).

[2] = C + NS398, 10 mg/kg i.p. BID for 7 days
[3] = T + NS398, 10 mg/kg i.p. BID for 7 days
[4] = injured mice + NS-398 over 7 days vs untreated injured, P<0.05

CS(=O)(=O)Nc1ccc([N+](=O)[O-])cc1OC1CCCCC1 [NS-398, N-(2-cyclohexyloxy-4-nitrophenyl)methanesulfonamide]
TNF-α [1, 2]: 2.6 ± 0.3 pg/μg protein | NO [1, 2]: 54.8 ± 2.1 nmol/μg protein | LTB4 levels (in words) ([1]; NS-398 given after injury, over 7 days): did not restore LTB4 levels to those seen in control | TNF-α [1, 3]: 2.6 ± 0.3 pg/μg protein | NO [1, 3]: 48.0 ± 3.3 nmol/μg protein | PGE2 production ([1]; injured mice + NS398 (TN), 10 mg/kg i.p. BID for 7 days): 3.1±0.4 pg/μg protein | IL-6 production (in words) [1, 4]: significantly attenuated production | NO production (in words) [1, 4]: significantly attenuated production | TNF-α production (in words) [1, 4]: significantly attenuated production | PGE2 production by splenocytes/macrophages (in words) ([1]; traumatized mice + NS-398 over 7 days, P<0.05): produce significantly less PGE2 | cytosolic IκB (IκB-α): an increase in cytosolic IκB
